Results reported in ChEMBL document CHEMBL6177995, “In Silico Discovery of Novel Potent Trace Amine-Associated Receptor TAAR1 Agonists as Promising Drug Candidates for the Treatment of Schizophrenia” (J Med Chem, 2025).
pEC50: −log10 of the molar value.

What was measured:
[1] = target: T1, Trace amine-associated receptor 1 (Homo sapiens, UniProt Q96RJ0); assay: Agonist activity at TAAR1 (unknown origin) transfected in HEK293 cells co-transfected with GalphaS-Nluc, Gbeta1/3 and Ggamma1/2/9-mVenus assessed as GalphaS-Gbeta/gamma dissociation by BRET assay; type: functional, cell-based
T1 sequence (Q96RJ0 whole entry): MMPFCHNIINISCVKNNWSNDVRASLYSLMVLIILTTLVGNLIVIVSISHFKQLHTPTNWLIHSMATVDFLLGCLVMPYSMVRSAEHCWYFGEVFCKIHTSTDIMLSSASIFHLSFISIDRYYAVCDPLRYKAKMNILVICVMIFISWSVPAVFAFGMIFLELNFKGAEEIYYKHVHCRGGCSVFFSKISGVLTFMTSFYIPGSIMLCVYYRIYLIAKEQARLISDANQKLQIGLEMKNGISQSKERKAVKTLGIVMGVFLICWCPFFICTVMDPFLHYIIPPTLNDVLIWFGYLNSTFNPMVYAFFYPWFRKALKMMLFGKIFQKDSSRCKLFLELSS

[2] = target: T1, Trace amine-associated receptor 1; assay: Agonist activity at TAAR1 (unknown origin) transfected in HEK293 cells co-transfected with Galphaq-Nluc, Gbeta1/3 and Ggamma1/2/9-mVenus assessed as Galphaq-Gbeta/gamma dissociation by BRET assay; type: functional, cell-based
[3] = Toxicity in male C57BL/6J mouse assessed as catalepsy by measuring extrapyramidal symptoms at 3 mg/kg, ip measured after 30 to 60 mins by bar test; type: organism-based; conditions: in vivo, time 30-60 min

SMILES | pEC50 [1] | pEC50 [2] | Activity [3]
O=S(=O)(NC[C@@H]1CCCN1)c1ccc2[nH]cnc2c1 | 7.33 | 6.88 | –
O=S(=O)(NC[C@@H]1CCCN1)c1c(Cl)cccc1Cl | < 5.00 | < 5.00 | –
O=S(=O)(NC[C@@H]1CCCN1)c1cccc(Br)c1 | < 5.00 | < 5.00 | –
CCC[C@H]1CN(C(=O)c2cc(Cl)cn2C)C[C@@H]1N | 6.56 | – | –
O=S(=O)(NC[C@@H]1CCCN1)c1cccc(Cl)c1 | < 5.00 | < 5.00 | –
COc1ccccc1S(=O)(=O)NC[C@@H]1CCCN1 | – | 8.11 | –
Cc1ccccc1S(=O)(=O)NC[C@@H]1CCCN1 | < 5.00 | < 5.00 | –
COc1ccc(S(=O)(=O)NC[C@@H]2CCCN2)cc1 | – | 7.45 | –
O=S(=O)(NC[C@@H]1CCCN1)c1ccc(O)cc1 | < 5.00 | < 5.00 | –
O=S(=O)(NC[C@@H]1CCCN1)c1ccc2c(c1)CCC2 | < 5.00 | < 5.00 | –
CC(=O)Nc1ccc(S(=O)(=O)NC[C@@H]2CCCN2)cc1 | – | 7.38 | –
N#Cc1ccc(S(=O)(=O)NC[C@@H]2CCCN2)cc1 | < 5.00 | < 5.00 | –
O=S(=O)(NC[C@@H]1CCCN1)c1ccccc1Cl | – | 7.20 | –
O=C(CCCN1CCC(O)(c2ccc(Cl)cc2)CC1)c1ccc(F)cc1 [HALOPERIDOL] | – | – | Toxic
O=S(=O)(NC[C@@H]1CCCN1)c1cc(F)cc(F)c1 | < 5.00 | < 5.00 | –
O=[N+]([O-])c1cccc(S(=O)(=O)NC[C@@H]2CCCN2)c1 | < 5.00 | < 5.00 | –
N[C@H]1CN(c2ncccc2C(F)(F)F)C[C@@H]1C1CC1 | – | 7.04 | –
N#Cc1cccc(S(=O)(=O)NC[C@@H]2CCCN2)c1 | < 5.00 | < 5.00 | –
O=S(=O)(NC[C@@H]1CCCN1)c1ccc(Cl)cc1 | < 5.00 | < 5.00 | –
